Results taken from US6660755B2, “Substituted diaryl or diheteroaryl methans, ethers and amines having retinoid agonist, antagonist or inverse agonist type biological activity” (Allergan, Inc., priority 1997, dated 2003).
Residue numbers refer to the chain shown, from its start.

Experiments:
[1] = target: RARα (Homo sapiens, UniProt P10276, E106G/G107S/G110V); test: PGR assay (RAR-P-GR holoreceptor transactivation), RARα; type: cell-based; details: for Emax: 18 h; for EC50: PGR assay (transactivation), CV-1 cells, luciferase reporter
Description: (§1) A holoreceptor transactivation assay and a ligand binding assay which measure the antagonist/agonist like activity of the compounds of the invention, or their ability to bind to the several retinoid receptor subtypes, respectively, are described in published PCT Application No. WO WO93/11755 (particularly on pages 30-33 and 37-41) published on Jun. 24, 1993, the specification of which is also incorporated herein by reference. A detailed experimental procedure for holoreceptor transactivations has been described by Heyman et al. Cell 1992, 68, 397-406; Allegretto et al. J. Biol. Chem. 1993 268, 26625-26633, and Mangelsdorf et al. The Retinoids: Biology, Chemistry and Medicine, pp 319-349, Raven Press Ltd., New York, which are expressly incorporated herein by reference. The results obtained in this assay are expressed in EC50 numbers, as they are also in the chimeric receptor transactivation assay. The results of ligand binding assay are expressed in Kd numbers. (See Cheng et al. Biochemical Pharmacology 22, 3099-3108, expressly incorporated herein by reference.) Still another transactivation assay, the “PGR assay” is described in the publication Klein et al. J. Biol. Chem. 1996, 271, 22692-22696, which is expressly incorporated herein by reference, and a detailed description is also provided below. The results of the PGR assay are also expressed in EC50 numbers (nanomolar concentration).
(§2) RAR-P-GR holoreceptor Transactivation Assay
(§3) CV-1 cells (4×10^5 cells/well) were transiently transfected with the luciferase reporter plasmid MTV-4(R5G)-Luc (0.7 μg/well) containing four copies of the R5G retinoid DNA response element along with the RXRα expression plasmid pRS-hRXRa (0.1 μg/well) and one of the RAR-P-GR expression plasmids (0.05 μg/well) in 12 well plates via calcium phosphate precipitation Chen et al. Mol. Cell. Biol. 1987, 7, 2745-2752 as described by Klein et al. J. Biol. Chem. 1996, 271, 22692, referenced above. The three different RAR-P-GR expression plasmids, pRS-RARα-P-GR, pcDNA3-RARβ-P-GR and pcDNA3-RARγ-P-GR, express RARα, RARβ and RARγ receptors, respectively, which contain modified DNA binding domains such that their “P-boxes” have been altered to that of the glucocorticoid receptor. These RAR-P-GR receptors bind to DNA as heterodimeric complexes with RXR. Specifically, the RAR-P-GR receptors bind retinoic acid response elements designated R5G, comprised of two RAR half sites (nucleotide sequence 5′-GGTTCA-3′) separated by 5 base pairs in which the 3′-half site has been modified to that of a glucocorticoid receptor half site, 5′-AGAACA-3′. To allow for various in transfection efficiency a β-galactosidase expression plasmid (0.01 μg/well) was used as an internal control. Alternatively, the assay was performed in a 96-well microtiter plate format (5000 cells/well) in a manner which was identical to that described above except ⅕ of the amount of the DNA-calcium phosphate precipitant (20 μl instead of 100 Al) was applied to each well. Eighteen hours after introduction of the DNA precipitants, cells were rinsed with phosphate buffered saline (PBS) and fed with D-MEM (Gibco-BRL) containing 10% activated charcoal extracted fetal bovine serum (Gemini Bio-Products). After rinsing with PBS cells were lysed with luciferase activity was measured as previously described in de Wet Mol. Cell. Biol. 1987, 7, 725-737. Luciferase values represent the mean±SEM of triplicate determinations normalized to β-galactosidase activity. The results of the PGR assay are also expressed in EC50 numbers (nanomolar concentration).

[2] = target: T1, RARγ (Homo sapiens, UniProt P13631, E108G/G109S/G112V); test: PGR assay (RAR-P-GR holoreceptor transactivation), RARγ; type: cell-based; details: for EC50: PGR assay (transactivation), CV-1 cells, luciferase reporter; for % Efficiency RARγ: efficiency relative to all-trans-retinoic acid, PGR assay
T1 construct: expressed in transfected cells; host or cells: CV-1 cells
T1 sequence (P13631 1-454 E108G/G109S/G112V): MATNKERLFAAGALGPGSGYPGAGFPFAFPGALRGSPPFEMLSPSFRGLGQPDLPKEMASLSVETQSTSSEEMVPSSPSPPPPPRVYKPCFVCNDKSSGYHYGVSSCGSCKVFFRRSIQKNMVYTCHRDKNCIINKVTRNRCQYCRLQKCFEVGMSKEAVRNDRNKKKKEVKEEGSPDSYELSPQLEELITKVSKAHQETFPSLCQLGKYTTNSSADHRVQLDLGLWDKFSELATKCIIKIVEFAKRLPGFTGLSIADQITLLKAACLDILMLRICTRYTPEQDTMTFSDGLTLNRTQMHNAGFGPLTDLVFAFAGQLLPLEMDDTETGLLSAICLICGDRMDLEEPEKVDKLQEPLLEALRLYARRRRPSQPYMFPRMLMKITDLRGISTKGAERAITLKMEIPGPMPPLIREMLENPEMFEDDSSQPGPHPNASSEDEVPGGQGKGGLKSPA
T1 sequence (P19793 1-462 partner): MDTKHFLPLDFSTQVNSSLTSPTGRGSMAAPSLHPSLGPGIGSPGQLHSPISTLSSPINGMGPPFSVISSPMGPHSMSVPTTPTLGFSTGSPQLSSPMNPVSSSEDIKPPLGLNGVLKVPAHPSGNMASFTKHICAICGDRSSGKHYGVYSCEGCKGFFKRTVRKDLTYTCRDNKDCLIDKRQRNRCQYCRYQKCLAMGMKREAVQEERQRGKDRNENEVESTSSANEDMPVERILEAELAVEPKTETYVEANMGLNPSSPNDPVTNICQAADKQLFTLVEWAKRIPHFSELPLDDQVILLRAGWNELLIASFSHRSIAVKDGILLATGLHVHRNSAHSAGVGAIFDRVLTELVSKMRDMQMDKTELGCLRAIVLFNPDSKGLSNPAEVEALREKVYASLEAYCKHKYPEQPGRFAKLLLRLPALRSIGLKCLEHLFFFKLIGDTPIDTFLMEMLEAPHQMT
Description: as §1, §2, §3

[3] = target: T2, RARγ (Homo sapiens, UniProt P13631); test: Ligand binding assay, RARγ
T2 sequence (P13631 1-454): T1 sequence (P13631 1-454 E108G/G109S/G112V) with G108E, S109G, V112G
Description: as §1

[4] = efficiency relative to all-trans-retinoic acid, PGR assay

Sequence of RARα (P10276 whole entry E106G/G107S/G110V, one chain of several): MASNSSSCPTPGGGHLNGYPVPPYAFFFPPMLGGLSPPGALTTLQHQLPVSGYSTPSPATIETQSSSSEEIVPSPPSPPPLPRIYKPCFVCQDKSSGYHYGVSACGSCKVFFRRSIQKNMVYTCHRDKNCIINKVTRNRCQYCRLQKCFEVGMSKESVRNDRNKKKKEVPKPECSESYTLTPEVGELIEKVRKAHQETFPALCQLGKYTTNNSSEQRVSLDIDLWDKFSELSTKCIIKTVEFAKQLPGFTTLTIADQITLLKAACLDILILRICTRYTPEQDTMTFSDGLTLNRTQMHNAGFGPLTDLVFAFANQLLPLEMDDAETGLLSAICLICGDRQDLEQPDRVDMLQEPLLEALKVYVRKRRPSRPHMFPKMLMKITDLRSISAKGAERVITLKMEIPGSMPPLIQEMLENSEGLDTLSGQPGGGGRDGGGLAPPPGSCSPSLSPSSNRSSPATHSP

## CC(C)(C)c1ccc(C#Cc2ccc(C(=O)O)c(F)c2)cc1Oc1ccc([N+](=O)[O-])cc1 [Compound 11, 4-[[4′-tert-Butyl-3′-(4″-nitro)phenoxy]phenylethynyl]-2-fluoro-benzoic Acid]
[1]; [4]
  Emax: 0%
[1]
  EC50: > 10 µM
[2]
  EC50: > 10 µM
  % Efficiency RARγ: 1%
[3]
  Kd: 0.112 µM

## CC(C)(C)c1ccc(C(=O)Nc2ccc(C(=O)O)c(F)c2)cc1Oc1ccc(C(F)(F)F)cc1 [Compound 13, 4-[[4′-tert-Butyl-3′-(4″-trifluoromethyl)phenoxy]benzoylamino]-2-fluorobenzoic Acid]
[1]; [4]
  Emax: 0%
[1]
  EC50: > 10 µM
[2]
  EC50: > 10 µM
  % Efficiency RARγ: 4%
[3]
  Kd: 5.69 µM

## COC(=O)c1ccc(Oc2cc(C#Cc3ccc(C(=O)O)c(F)c3)ccc2C(C)(C)C)cc1 [Compound 10, 4-[[4′-tert-Butyl-3′-(4″-carbomethoxy)phenoxy]phenylethynyl]-2-fluorobenzoic Acid]
[1]; [4]
  Emax: 0%
[1]
  EC50: > 10 µM
[2]
  EC50: > 10 µM
  % Efficiency RARγ: 0%
[3]
  Kd: 0.066 µM

## CC(C)(C)c1ccc(C#Cc2ccc(C(=O)O)cn2)cc1Oc1ccc(C(F)(F)F)cc1 [Compound 6, 6-[[4′-tert-Butyl-3′-(4″-trifluomethyl)phenoxy]phenylethynyl]-3-nicotinic Acid]
[1]
  EC50: > 10 µM
[1]; [4]
  % Efficiency RARα: 0%
[2]
  EC50: > 10 µM
  % Efficiency RARγ: 70%
[3]
  Kd: 0.317 µM
